Experimental data reported in PubChem BioAssay AID330 (DTP/NCI, 2004).
Inconclusive results and toxic doses are left out. How the source made its calls: active means survival T/C of 150% or more; inactive means T/C below 125% in these data. Peptide text beside a SMILES is read from it. * marks the point of attachment. Cbz = O=C(OCc1ccccc1)*

System: P388 leukemia ip, CD2F1 mice, survival T/C
Test: NCI In Vivo Anticancer Drug Screen. Data for tumor model P388 Leukemia (intraperitoneal) in CD2F1 (CDF1) mice
Details: endpoint: median survival time, higher = longer survival
Procedure, shortened: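 Mice carrying the transplanted tumor received test compound or vehicle. Survival was recorded in each group, and the value is the treated-group measurement divided by that of the vehicle-treated control group.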

[1] = dose: 60.0 mg/kg/injection, schedule: Q01DX005 (ip), vehicle: saline with Tween-80
[2] = dose: 120.0 mg/kg/injection, schedule: Q01DX005 (ip), vehicle: saline with Tween-80
[3] = dose: 240.0 mg/kg/injection, schedule: Q01DX005 (ip), vehicle: saline with Tween-80
[4] = dose: 50.0 mg/kg/injection, schedule: Q01DX005 (ip), vehicle: saline with Tween-80
[5] = dose: 100.0 mg/kg/injection, schedule: Q01DX005 (ip), vehicle: saline with Tween-80
[6] = dose: 200.0 mg/kg/injection, schedule: Q01DX005 (ip), vehicle: saline with Tween-80

Measured: T/C

O=C(O)CCc1ccccc1Br
inactive: dose: 100.0 mg/kg/injection, schedule: Q04DX002 (ip), vehicle: saline with Tween-80 101 % of control | dose: 200.0 mg/kg/injection, schedule: Q04DX002 (ip), vehicle: saline with Tween-80 95 % of control | dose: 400.0 mg/kg/injection, schedule: Q04DX002 (ip), vehicle: saline with Tween-80 100 % of control

CC12OC(=O)CC1OC2(c1ccccc1)c1ccccc1 (stereo not given)
inactive: [1] 96 % of control | [2] 93 % of control | [3] 90 % of control

Cn1c(-c2ccccc2)nc(-c2ccccc2)[n+]1[O-]
inactive: dose: 60.0 mg/kg/injection, schedule: Q01DX005 (ip), vehicle: Klucel (hydroxypropylcellulose) (HPC) 102 % of control | dose: 120.0 mg/kg/injection, schedule: Q01DX005 (ip), vehicle: Klucel (hydroxypropylcellulose) (HPC) 96 % of control | dose: 240.0 mg/kg/injection, schedule: Q01DX005 (ip), vehicle: Klucel (hydroxypropylcellulose) (HPC) 95 % of control

CC(=O)OC1CCC2(C)C(=CCC3C2CCC2(C)C(OC(C)=O)/C(=C/C(=O)O)CC32)C1 (stereo not given)
inactive: dose: 25.0 mg/kg/injection, schedule: Q01DX009 (ip), vehicle: Klucel (hydroxypropylcellulose) (HPC) 94 % of control | dose: 50.0 mg/kg/injection, schedule: Q01DX009 (ip), vehicle: Klucel (hydroxypropylcellulose) (HPC) 97 % of control | dose: 100.0 mg/kg/injection, schedule: Q01DX009 (ip), vehicle: Klucel (hydroxypropylcellulose) (HPC) 97 % of control | dose: 200.0 mg/kg/injection, schedule: Q01DX009 (ip), vehicle: Klucel (hydroxypropylcellulose) (HPC) 90 % of control

NCCS(=O)(=O)O
inactive: dose: 100.0 mg/kg/injection, schedule: Q01DX009 (ip), vehicle: water 90 % of control | dose: 200.0 mg/kg/injection, schedule: Q01DX009 (ip), vehicle: water 86 % of control | dose: 400.0 mg/kg/injection, schedule: Q01DX009 (ip), vehicle: water 86 % of control | dose: 800.0 mg/kg/injection, schedule: Q01DX009 (ip), vehicle: water 90 % of control

O=C(Nc1ccc(Sc2ccc(N=Nc3c(O)c(S(=O)(=O)O)cc4cc(S(=O)(=O)O)ccc34)cc2)cc1)c1ccc(N=Nc2ccc3c(S(=O)(=O)O)cccc3c2O)cc1
inactive: [4] 101 % of control | [5] 102 % of control | [6] 95 % of control

CCCCCCCC/C=C\CCCCCCCCN1CN=C(N)N(C#N)C1
inactive: dose: 100.0 mg/kg/injection, schedule: Q04DX003 (ip), vehicle: saline with Tween-80 101 % of control | dose: 200.0 mg/kg/injection, schedule: Q04DX003 (ip), vehicle: saline with Tween-80 100 % of control | dose: 400.0 mg/kg/injection, schedule: Q04DX003 (ip), vehicle: saline with Tween-80 103 % of control

CSC1(SC2=NCCN2)SC2(NCCN2)S1
inactive: dose: 200.0 mg/kg/injection, schedule: Q01DX001 (ip), vehicle: Klucel (hydroxypropylcellulose) (HPC) 86 % of control | dose: 400.0 mg/kg/injection, schedule: Q01DX001 (ip), vehicle: Klucel (hydroxypropylcellulose) (HPC) 90 % of control

CCOC(=O)C(Cc1ccccc1Cl)(Cc1ccccc1Cl)c1ccccc1
inactive: dose: 266.0 mg/kg/injection, schedule: Q01DX009 (ip), vehicle: saline with Tween-80 98 % of control | dose: 400.0 mg/kg/injection, schedule: Q01DX009 (ip), vehicle: saline with Tween-80 111 % of control | dose: 600.0 mg/kg/injection, schedule: Q01DX009 (ip), vehicle: saline with Tween-80 96 % of control

CC(=O)c1ccn[nH]1
inactive: [4] 98 % of control | [5] 99 % of control | [6] 110 % of control

COc1cc(C2OCC3C(c4cc(OC)c(OC)c(OC)c4)OCC23)cc(OC)c1OC (stereo not given)
inactive: dose: 50.0 mg/kg/injection, schedule: Q01DX005 (ip), vehicle: Klucel (hydroxypropylcellulose) (HPC) 102 % of control | dose: 100.0 mg/kg/injection, schedule: Q01DX005 (ip), vehicle: Klucel (hydroxypropylcellulose) (HPC) 100 % of control | dose: 200.0 mg/kg/injection, schedule: Q01DX005 (ip), vehicle: Klucel (hydroxypropylcellulose) (HPC) 102 % of control

CCOC(=O)c1cc2nc(C(C)C)n(Cc3ccccc3)c2cc(C(=O)OCC)c1=O
inactive: [1] 103 % of control | [2] 97 % of control | [3] 89 % of control

O=C(NC(Cc1ccccc1)C(=O)NC(CO)C(=O)O)OCc1ccccc1 (stereo not drawn) (Cbz-Phe-Ser-OH; configuration not given here)
inactive: [4] 100 % of control | [5] 100 % of control | [6] 98 % of control
